Measured values as given in US10112955B2, “Isoindoline, azaisoindoline, dihydroindenone and dihydroazaindenone inhibitors of Mnk1 and Mnk2” (eFFECTOR THERAPEUTICS, INC., priority 2015, dated 2018).
pIC50: −log10 of the molar value. Like-named read-outs stand apart in the source and are kept apart here.

Tests used:
Phosphorylated eIF4E = assay: peIF4E Signaling Cellular Assay (CisBio peIF4E HTRF); assay type: cell-based; settings: cells incubated with compound for 2 hrs at 37° C., 12-point curve
Experimental: Phosphorylated eIF4E is assayed using the CisBio peIF4E HTRF® assay kit (CisBio, catalogue No. 64EF4PEG). Cells are plated in 96-well tissue-culture treated plate in appropriate growth medium (90 μL). Compounds (10×) are diluted using 3-fold serial dilutions in cell culture medium and added to cells. Plates are incubated for 2 hrs at 37° C. The cell supernatant is carefully removed either by aspirating supernatant or by flicking the plate. Immediately 50 μL of supplemented lysis buffer (1×) is added and incubated for at least 30 minutes at room temperature under shaking. After homogenization by pipeting up and down, 16 μL of cell lysate is transferred from the 96-well cell-culture plate to a 384-well small volume white plate. 4 μL of premixed antibody solutions (vol/vol) is prepared in the detection buffer and added. The plate is covered with a plate sealer and incubated overnight at room temperature. The fluorescence emissions at two different wavelengths are read (665 nm and 620 nm) on a Wallac Victor2. Emission ratios are converted into percent inhibitions and imported into GraphPad Prism software. […] IC50 values are determined using a nonlinear regression model available in GraphPad Prism 5.

MNK1 = MNK1 (Homo sapiens (Human), UniProt Q9BUB5); assay: MNK Biochemical Enzymatic Assay (ADP-Glo), MNK1
Chain of MNK1 (Q9BUB5 whole entry): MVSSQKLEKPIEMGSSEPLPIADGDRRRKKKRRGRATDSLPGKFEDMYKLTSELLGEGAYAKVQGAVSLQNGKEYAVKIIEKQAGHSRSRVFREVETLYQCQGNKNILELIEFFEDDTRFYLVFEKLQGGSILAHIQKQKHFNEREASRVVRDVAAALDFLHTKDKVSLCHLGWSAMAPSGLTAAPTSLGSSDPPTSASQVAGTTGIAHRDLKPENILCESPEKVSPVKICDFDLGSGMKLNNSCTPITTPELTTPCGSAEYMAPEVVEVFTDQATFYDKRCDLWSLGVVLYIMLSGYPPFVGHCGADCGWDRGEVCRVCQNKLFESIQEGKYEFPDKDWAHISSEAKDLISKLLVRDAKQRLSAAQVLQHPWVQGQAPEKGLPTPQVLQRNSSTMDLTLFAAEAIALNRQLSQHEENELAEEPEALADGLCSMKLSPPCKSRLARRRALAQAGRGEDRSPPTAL
Experimental: (§1) Compounds are screened for MNK inhibition using the ADP-Glo kinase assay kit (Promega, catalogue No. V9101). All kinase reactions are performed in Reaction Buffer E (15 mM HEPES pH7.4, 20 mM NaCl, 1 mM EGTA, 10 mM MgCl2, 0.1 mg/ml BGG, and 0.02% Tween-20). […] Final DMSO concentration in each reaction is 1%.
(§2) Kinase reactions are carried out in 96-well half-area white flat-bottom polystyrene plates in a final volume of 25 μl. MNK1/2 enzymes are pre-incubated with compound and peptide substrate for 5 minutes prior to the addition of ATP. After the addition of ATP, kinase reactions are incubated at room temperature for 40 minutes. Reactions are subsequently stopped by the addition of 25 μl of ADP-Glo Reagent and incubating for an additional 40 minutes. The final luminescent signal used for kinase activity readout is produced by the addition of 45 μl of Kinase Detection Reagent (ADP-Glo kit, Promega) and incubating for 40 minutes.

MNK2 = MNK2 (Homo sapiens (Human), UniProt Q9HBH9); assay: MNK Biochemical Enzymatic Assay (ADP-Glo), MNK2; settings: 3 nM recombinant MNK2, 50 μM substrate peptide, 10 μM ATP
Chain of MNK2 (Q9HBH9 whole entry): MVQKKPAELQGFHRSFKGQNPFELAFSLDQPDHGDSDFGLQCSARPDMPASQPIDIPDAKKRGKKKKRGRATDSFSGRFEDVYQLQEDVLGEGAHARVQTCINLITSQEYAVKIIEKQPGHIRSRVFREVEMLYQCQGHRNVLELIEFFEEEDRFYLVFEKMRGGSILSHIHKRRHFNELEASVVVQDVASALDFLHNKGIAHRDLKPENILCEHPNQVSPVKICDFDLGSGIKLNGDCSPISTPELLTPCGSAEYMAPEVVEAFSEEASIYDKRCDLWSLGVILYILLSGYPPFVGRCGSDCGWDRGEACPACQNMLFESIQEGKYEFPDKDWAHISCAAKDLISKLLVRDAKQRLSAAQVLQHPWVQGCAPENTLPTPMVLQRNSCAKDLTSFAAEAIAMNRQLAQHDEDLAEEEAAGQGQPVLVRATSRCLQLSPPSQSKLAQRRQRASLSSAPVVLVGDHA
Experimental: as §1, §2

[1] = 10 nM recombinant MNK1, 100 μM substrate peptide, 300 μM ATP, read-out: IC50 Mnk1

| pIC50 (Phosphorylated eIF4E) | pIC50 (MNK1; [1]) | pIC50 (MNK2) | Structure (SMILES) | pIC50 (MNK1) |
| --- | --- | --- | --- | --- |
| 6.00 to 7.30 | > 8.00 | 5.00 to 7.00 | CC1NC(=O)c2ccc(Nc3ccnc(NC(=O)C4CC4)c3)cc21 (stereo not drawn) [Cpd. No. 24, N-(4-((3-methyl-1-oxoisoindolin-5-yl)amino)pyridin-2-yl) cyclopropane carboxamide] |  |
| 6.00 to 7.30 | > 8.00 | > 8.00 | CC1(C)NC(=O)c2c(Cl)cc(Nc3ccncn3)cc21 [Cpd. No. 36, 7-chloro-3,3-dimethyl-5-(pyrimidin-4-ylamino)isoindolin-1-one] |  |
| > 7.30 |  | > 8.00 | COc1cncnc1Nc1cc(C)c2c(c1)C1(CCCCC1)NC2=O [Cpd. No. 54, 6′-((5-methoxypyrimidin-4-yl)amino)-4′-methylspiro[cyclohexane-1,1′-isoindolin]-3′-one] |  |
| 6.00 to 7.30 |  | > 8.00 | Cc1cc(Nc2cc(N)ncn2)cc2c1C(=O)NC21CCCC1 [Cpd. No. 47, 6′-((6-aminopyrimidin-4-yl)amino)-4′-methylspiro[cyclopentane-1,1′-isoindolin]-3′-one] |  |
|  | 5.00 to 7.00 |  | O=C1CCc2cc(Nc3ccncn3)ccc21 [Cpd. No. 5, 5-(pyrimidin-4-ylamino)-2,3-dihydro-1H-inden-1-one] |  |
|  | 5.00 to 7.00 |  | O=C1NCc2cc(Nc3ccncn3)ccc21 [Cpd. No. 3, 5-(pyrimidin-4-ylamino)isoindolin-1-one] |  |
|  |  |  | Cn1cc(Nc2cc(Nc3ccc4c(c3)CNC4=O)ncn2)cn1 [Cpd. No. 6, 5-((6-((1-methyl-1H-pyrazol-4-yl)amino)pyrimidin-4-yl)amino)isoindolin-1-one] | 7.00 to 8.00 |
| 4.00 to 6.00 |  | 7.00 to 8.00 | NC(=O)c1ccc2c(c1)ncn2-c1cc(N)ncn1 [Cpd. No. 49, 1-(6-aminopyrimidin-4-yl)-1H-benzo[d]imidazole-5-carboxamide] |  |
| 4.00 to 6.00 | 5.00 to 7.00 | 7.00 to 8.00 | CC1CNC(=O)c2ccc(Nc3ccncn3)cc21 (stereo not drawn) [Cpd. No. 22, 4-methyl-6-(pyrimidin-4-ylamino)-3,4-dihydroisoquinolin-1(2H)-one] |  |
|  | 7.00 to 8.00 |  | O=C1NCc2cc(Nc3ncnc4[nH]cnc34)ccc21 [Cpd. No. 1, 5-((9H-purin-6-yl)amino)isoindolin-1-one] |  |
|  | 5.00 to 7.00 |  | O=C1NCc2cc(Nc3cc(Cl)ncn3)ccc21 [Cpd. No. 4, 5-((6-chloropyrimidin-4-yl)amino)isoindolin-1-one] |  |
| 4.00 to 6.00 |  | 5.00 to 7.00 | O=C1NC2CC2c2cc(Nc3ccncn3)ccc21 (stereo not drawn) [Cpd. No. 29, 6-(pyrimidin-4-ylamino)-1,1a,2,7b-tetrahydro-3H-cyclopropa[c]isoquinolin-3-one] |  |
| > 7.30 |  | > 8.00 | Nc1cc(Nc2cc(Cl)c3c(c2)C2(CCCCC2)NC3=O)ncn1 [Cpd. No. 48, 6′-((6-aminopyrimidin-4-yl)amino)-4′-chlorospiro[cyclohexane-1,1′-isoindolin]-3′-one] |  |
|  |  | 5.00 to 7.00 | CC1(N)CC(=O)c2ccc(Nc3ccncn3)cc21 (stereo not drawn) [Cpd. No. 30, 3-amino-3-methyl-5-(pyrimidin-4-ylamino)-2,3-dihydro-1H-inden-1-one] |  |
|  |  | 5.00 to 7.00 | CC1NC(=O)c2ccc(Nc3ncnc4c3CC(=O)N4)cc21 (stereo not drawn) [Cpd. No. 41, 4-[(3-methyl-1-oxo-isoindolin-5-yl)amino]-5,7-dihydropyrrolo[2,3-d]pyrimidin-6-one] |  |
| > 7.30 |  | > 8.00 | Cc1cc(Nc2cc(N)ncn2)cc2c1C(=O)NC21CCCCC1 [Cpd. No. 51, 6′-((6-aminopyrimidin-4-yl)amino)-4′-methylspiro[cyclohexane-1,1′-isoindolin]-3′-one] |  |
| 4.00 to 6.00 |  | > 8.00 | CC1(C)NC(=O)c2ccc(Nc3cc(N)ncn3)c(Cl)c21 [Cpd. No. 52, 5-((6-aminopyrimidin-4-yl)amino)-4-chloro-3,3-dimethylisoindolin-1-one] |  |

| pIC50 (Phosphorylated eIF4E) | pIC50 (MNK1; [1]) | pIC50 (MNK2) | Structure (SMILES) | pIC50 (MNK1) |
| --- | --- | --- | --- | --- |
| 6.00 to 7.30 |  | > 8.00 | Cc1cc(Nc2cc(N)ncn2)cc2c1C(=O)NC2(C)C [Cpd. No. 44, 5-((6-aminopyrimidin-4-yl)amino)-3,3,7-trimethylisoindolin-1-one] |  |
|  |  | 5.00 to 7.00 | NC1CC(=O)c2ccc(Nc3ccncn3)cc21 (stereo not drawn) [Cpd. No. 28, 3-amino-5-(pyrimidin-4-ylamino)-2,3-dihydro-1H-inden-1-one] |  |
|  |  | 5.00 to 7.00 | O=c1[nH]sc2cc(Nc3ccncn3)ccc12 [Cpd. No. 27, 6-(pyrimidin-4-ylamino)benzo[d]isothiazol-3(2H)-one] |  |
|  |  | 5.00 to 7.00 | CNc1cc(Nc2ccc3c(c2)C(C)NC3=O)ccn1 (stereo not drawn) [Cpd. No. 25, 3-methyl-5-((2-(methylamino)pyridin-4-yl)amino) isoindolin-1-one] |  |
|  |  | 5.00 to 7.00 | CC1c2cc(Nc3ccncn3)ccc2C(=O)N1C (stereo not drawn) [Cpd. No. 20, 2,3-dimethyl-5-(pyrimidin-4-ylamino)isoindolin-1-one] |  |
|  | > 8.00 | > 8.00 | O=C1NC(c2ccsc2)c2cc(Nc3ccncn3)ccc21 (stereo not drawn) [Cpd. No. 37, 5-(pyrimidin-4-ylamino)-3-(thiophen-3-yl)isoindolin-1-one] |  |
|  |  | 5.00 to 7.00 | CC1(N)CNC(=O)c2ccc(Nc3ccncn3)cc21 (stereo not drawn) [Cpd. No. 32, 4-amino-4-methyl-6-(pyrimidin-4-ylamino)-3,4-dihydroisoquinolin-1(2H)-one] |  |
| > 7.30 |  | > 8.00 | O=C1NC2(CCCCC2)c2cc(Nc3ccncn3)cc(Cl)c21 [Cpd. No. 46, 4′-chloro-6′-(pyrimidin-4-ylamino)spiro[cyclohexane-1,1′-isoindolin]-3′-one] |  |
|  |  | 5.00 to 7.00 | Cc1cc(Nc2ccc3c(c2)C(C)NC3=O)ncn1 (stereo not drawn) [Cpd. No. 26, 3-methyl-5-((6-methylpyrimidin-4-yl)amino)isoindolin-1-one] |  |
| > 7.30 |  | > 8.00 | Nc1ncnc(Nc2cc(Cl)c3c(c2)C2(CCCCC2)NC3=O)c1Cl [Cpd. No. 59, 6′-((6-amino-5-chloropyrimidin-4-yl)amino)-4′-chlorospiro[cyclohexane-1,1′-isoindolin]-3′-one] |  |
| > 7.30 |  | > 8.00 | CC1(C)NC(=O)c2c(Cl)cc(Nc3ncnc(N)c3Cl)cc21 [Cpd. No. 50, 5-((6-amino-5-chloropyrimidin-4-yl)amino)-7-chloro-3,3-dimethylisoindolin-1-one] |  |
|  | 7.00 to 8.00 |  | CN1Cc2cc(Nc3ncnc4[nH]cnc34)ccc2C1=O [Cpd. No. 2, 5-((9H-purin-6-yl)amino)-2-methylisoindolin-1-one] |  |
| 6.00 to 7.30 |  | 7.00 to 8.00 | CCc1cncnc1Nc1cc(C)c2c(c1)C1(CCCCC1)NC2=O [Cpd. No. 56, 6′-((5-ethylpyrimidin-4-yl)amino)-4′-methylspiro[cyclohexane-1,1′-isoindolin]-3′-one] |  |
|  |  | 5.00 to 7.00 | CSc1cc(Nc2ccc3c(c2)C(C)NC3=O)ncn1 (stereo not drawn) [Cpd. No. 16, 3-methyl-5-((6-(methylthio)pyrimidin-4-yl)amino)isoindolin-1-one] |  |
|  |  | 5.00 to 7.00 | CC1Cc2cc(Nc3ccncn3)ccc2NC1=O (stereo not drawn) [Cpd. No. 21, 3-methyl-6-(pyrimidin-4-ylamino)-3,4-dihydroquinolin-2(1H)-one] |  |
| 6.00 to 7.30 |  | > 8.00 | CCc1c(N)ncnc1Nc1cc(C)c2c(c1)C1(CCCCC1)NC2=O [Cpd. No. 53, 6′-((6-amino-5-ethylpyrimidin-4-yl)amino)-4′-methylspiro[cyclohexane-1,1′-isoindolin]-3′-one] |  |
|  |  | 5.00 to 7.00 | CC1NC(=O)c2ccc(Nc3cc(NC(=O)C(C)(C)C)ncn3)cc21 (stereo not drawn) [Cpd. No. 18, N-(6-((3-methyl-1-oxoisoindolin-5-yl)amino)pyrimidin-4-yl)pivalamide] |  |
